# Laboratory results from BindingDB's records for doi:10.1021/jm1006148 (Sri International, 2010).
# Target: Neuronal acetylcholine receptor subunit alpha-7 (Rattus norvegicus, UniProt Q05941)
# Assay: Displacement of [3H]epibatidine from alpha7 nAChR in rat brain membranes after 2 hrs
# Chain of Neuronal acetylcholine receptor subunit alpha-7 (Q05941 whole entry): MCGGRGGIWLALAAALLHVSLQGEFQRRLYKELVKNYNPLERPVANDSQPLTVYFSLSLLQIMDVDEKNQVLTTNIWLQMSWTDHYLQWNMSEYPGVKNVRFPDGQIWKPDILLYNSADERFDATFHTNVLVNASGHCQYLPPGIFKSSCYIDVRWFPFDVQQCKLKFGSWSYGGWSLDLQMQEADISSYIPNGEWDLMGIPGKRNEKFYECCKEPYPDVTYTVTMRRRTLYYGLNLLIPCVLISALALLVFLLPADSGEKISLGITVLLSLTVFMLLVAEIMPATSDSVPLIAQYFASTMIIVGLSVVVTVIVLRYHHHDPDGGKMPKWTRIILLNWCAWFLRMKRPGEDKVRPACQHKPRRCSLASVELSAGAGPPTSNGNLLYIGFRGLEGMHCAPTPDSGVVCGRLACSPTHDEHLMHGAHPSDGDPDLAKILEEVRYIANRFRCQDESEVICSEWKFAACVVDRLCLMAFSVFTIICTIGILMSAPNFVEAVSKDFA
smiles,measurement,value
CN1C2CCCC1CC(N1C(=O)Cc3ccccc31)C2 (stereo unspecified) [1-(1-(9-methyl-9-azabicyclo[3.3.1]nonan-3-yl)indolin-2-one],Ki,> 100 µM
